Molecular target: human ACC2 (Homo sapiens (Human), UniProt O00763)
Experiment: ACC2 assay, spectrophotometric 384 well assay (NADH-linked kinetic method)
Assay type: biochemical
Conditions: human ACC2 construct lacking the 128 N-terminal amino acids; coupled lactate dehydrogenase/pyruvate kinase reaction, 340 nm, 25° C.
Outline: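 N-terminally truncated human ACC2 (lacking 128 residues), expressed in insect cells, was coupled to pyruvate kinase/lactate dehydrogenase, with NADH and acetyl-CoA at 2000 μM and ATP at 500 μM final. The OD340 decrease was followed over 15 min at 25 °C. Slopes were normalised to vehicle and no-acetyl-CoA controls, and IC50 came from four-parameter regression.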

human ACC2, sequence (O00763 129-2458): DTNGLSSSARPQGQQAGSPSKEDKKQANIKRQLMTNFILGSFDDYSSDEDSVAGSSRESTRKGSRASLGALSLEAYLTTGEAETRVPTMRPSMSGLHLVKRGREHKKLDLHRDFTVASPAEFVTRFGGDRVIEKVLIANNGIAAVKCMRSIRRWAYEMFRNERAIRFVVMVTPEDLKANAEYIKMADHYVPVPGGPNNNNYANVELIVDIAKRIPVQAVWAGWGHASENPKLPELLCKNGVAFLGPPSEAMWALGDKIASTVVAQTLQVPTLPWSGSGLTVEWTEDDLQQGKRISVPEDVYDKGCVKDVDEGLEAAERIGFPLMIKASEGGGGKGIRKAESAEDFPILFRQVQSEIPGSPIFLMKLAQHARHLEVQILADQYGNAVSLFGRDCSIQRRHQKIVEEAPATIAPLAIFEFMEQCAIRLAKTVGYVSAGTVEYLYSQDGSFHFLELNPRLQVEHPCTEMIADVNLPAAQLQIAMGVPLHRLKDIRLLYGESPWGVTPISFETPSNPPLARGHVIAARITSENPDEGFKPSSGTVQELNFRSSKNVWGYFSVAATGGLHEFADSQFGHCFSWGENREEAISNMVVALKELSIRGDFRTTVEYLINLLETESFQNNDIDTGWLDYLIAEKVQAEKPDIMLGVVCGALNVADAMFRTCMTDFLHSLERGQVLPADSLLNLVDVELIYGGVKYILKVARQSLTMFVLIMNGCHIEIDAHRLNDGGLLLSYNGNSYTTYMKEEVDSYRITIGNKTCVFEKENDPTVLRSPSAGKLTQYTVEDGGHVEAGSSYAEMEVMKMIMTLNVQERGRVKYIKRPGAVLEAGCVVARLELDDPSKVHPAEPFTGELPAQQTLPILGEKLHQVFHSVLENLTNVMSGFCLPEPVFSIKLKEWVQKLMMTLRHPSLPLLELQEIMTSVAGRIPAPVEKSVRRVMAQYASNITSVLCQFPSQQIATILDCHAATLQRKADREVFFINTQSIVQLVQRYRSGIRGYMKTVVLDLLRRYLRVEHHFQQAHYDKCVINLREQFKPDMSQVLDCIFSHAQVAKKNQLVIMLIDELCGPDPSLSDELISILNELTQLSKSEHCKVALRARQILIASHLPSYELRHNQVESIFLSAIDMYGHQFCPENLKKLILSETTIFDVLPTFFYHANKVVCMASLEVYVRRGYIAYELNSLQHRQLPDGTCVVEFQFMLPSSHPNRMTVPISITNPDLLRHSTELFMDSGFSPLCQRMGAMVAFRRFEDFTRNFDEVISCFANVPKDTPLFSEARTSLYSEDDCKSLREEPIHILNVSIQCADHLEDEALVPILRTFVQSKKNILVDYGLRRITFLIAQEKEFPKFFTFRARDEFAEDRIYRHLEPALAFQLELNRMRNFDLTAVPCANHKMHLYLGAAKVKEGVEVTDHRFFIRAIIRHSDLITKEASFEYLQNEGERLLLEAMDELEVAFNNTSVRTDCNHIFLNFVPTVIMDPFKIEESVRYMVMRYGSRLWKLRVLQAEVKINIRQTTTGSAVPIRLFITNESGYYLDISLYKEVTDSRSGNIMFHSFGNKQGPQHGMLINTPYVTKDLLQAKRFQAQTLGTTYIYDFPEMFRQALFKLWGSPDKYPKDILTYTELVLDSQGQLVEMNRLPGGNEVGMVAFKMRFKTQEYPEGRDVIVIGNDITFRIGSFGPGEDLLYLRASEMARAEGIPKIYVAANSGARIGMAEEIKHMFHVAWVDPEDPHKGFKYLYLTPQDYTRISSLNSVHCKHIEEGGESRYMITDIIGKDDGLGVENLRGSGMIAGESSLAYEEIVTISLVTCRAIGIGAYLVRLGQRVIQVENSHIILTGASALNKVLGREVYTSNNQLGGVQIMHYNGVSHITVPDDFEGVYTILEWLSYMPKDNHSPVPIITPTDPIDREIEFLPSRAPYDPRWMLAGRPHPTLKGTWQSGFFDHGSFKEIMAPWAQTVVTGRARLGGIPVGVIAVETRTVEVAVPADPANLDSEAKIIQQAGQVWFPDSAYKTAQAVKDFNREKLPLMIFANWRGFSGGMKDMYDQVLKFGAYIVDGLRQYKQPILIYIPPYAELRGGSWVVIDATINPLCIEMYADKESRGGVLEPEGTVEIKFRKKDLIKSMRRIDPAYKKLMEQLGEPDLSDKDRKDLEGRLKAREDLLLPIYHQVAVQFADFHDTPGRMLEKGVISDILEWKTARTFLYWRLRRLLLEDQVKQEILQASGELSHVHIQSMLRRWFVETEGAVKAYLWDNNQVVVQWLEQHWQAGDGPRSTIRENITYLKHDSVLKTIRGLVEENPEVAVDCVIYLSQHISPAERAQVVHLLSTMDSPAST

IC50 [nM]	Compound
45	COc1c(N2CC[C@@H](Oc3ccc([C@H](C)NC(C)=O)cc3)C2)ccnc1OCC1CC1(F)F (some centres unmarked) [Example 14.2]
245	CC(=O)N[C@@H](C)c1ccc(O[C@@H]2CCN(c3ccnc(C4CC4)c3F)C2)cc1 [Example 15, N—((S)-1-(4-((R)-1-(2-cyclopropyl-fluoropyridin-4-yl)pyrrolidin-3-yloxy)phenyl)-ethyl)-acetamide]

Source: US8877741B2, “Pyrrolidine derivatives, pharmaceutical compositions and uses thereof” (Boehringer Ingelheim International GmbH, priority 2013, dated 2014)
